According to ChEMBL document CHEMBL3804771, “De novo design of helical peptides to inhibit tumor necrosis factor- by disrupting its trimer formation” (Medchemcomm, 2016):
Calls of active or inactive are those of the source. The calls are words filed in the database; no cut-off is given here.

Experiments:
[1] = Cytotoxicity against HEK293T cells assessed as cell death at 30 uM after 24 hrs by CCK8 assay; type: cell-based; conditions: human, hek-293t
[2] = molecular target: T1, Tumor necrosis factor (Homo sapiens, UniProt P01375); experiment: Binding affinity to human TNFalpha expressed in Escherichia coli by surface plasmon resonance method
T1 sequence (P01375 whole entry): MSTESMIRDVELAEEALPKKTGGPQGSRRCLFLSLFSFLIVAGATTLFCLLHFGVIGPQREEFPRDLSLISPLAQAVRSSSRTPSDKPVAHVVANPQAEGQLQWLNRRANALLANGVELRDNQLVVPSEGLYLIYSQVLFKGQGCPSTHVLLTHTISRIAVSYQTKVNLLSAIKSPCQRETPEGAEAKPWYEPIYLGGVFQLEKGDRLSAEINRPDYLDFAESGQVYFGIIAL

[3] = molecular target: T1, Tumor necrosis factor; experiment: Inhibition of human TNFalpha induced NFkappaB activation in HEK293T cells after 6 hrs by dual-glo luciferase assay; type: cell-based, HEK-293T; conditions: for inhibition: HEK-293T
[4] = Cytotoxicity against HEK293T cells at >300 uM after 24 hrs by CCK8 assay; type: cell-based; conditions: human, hek-293t
[5] = molecular target: T1, Tumor necrosis factor; experiment: Inhibition of human TNFalpha expressed in Escherichia coli assessed as decrease in TNF-alpha trimer level after 15 mins by SDS-PAGE analysis
[6] = molecular target: T1, Tumor necrosis factor; experiment: Inhibition of human TNFalpha expressed in Escherichia coli assessed as increase in TNF-alpha dimer level after 15 mins by SDS-PAGE analysis
[7] = molecular target: T1, Tumor necrosis factor; experiment: Inhibition of human TNFalpha expressed in Escherichia coli assessed as increase in TNFalpha monomer level after 15 mins by SDS-PAGE analysis
[8] = molecular target: T1, Tumor necrosis factor; experiment: Inhibition of human TNFalpha expressed in Escherichia coli assessed as trimer to dimer transition at 5 uM measured after 12 hrs by mass spectrometry

| Compound | mortality [1] [%] | Kd [2] [nM] | IC50 [3] [nM] | Activity [4] | inhibition [5] | inhibition [3] | inhibition [6] | inhibition [7] | inhibition [8] |
| --- | --- | --- | --- | --- | --- | --- | --- | --- | --- |
| Cc1cc2occ(CN(C)CCN(C)Cc3cn(-c4cccc(C(F)(F)F)c4)c4ccccc34)c(=O)c2cc1C | 50 | – | – | – | – | – | – | – | – |
| CC[C@H](C)[C@H](NC(=O)[C@H](CCC(N)=O)NC(=O)[C@H](CCC(N)=O)NC(=O)[C@H](Cc1ccccc1)NC(=O)[C@H](CCC(=O)O)NC(=O)[C@H](CCC(N)=O)NC(=O)[C@@H](NC(=O)[C@H](CCC(=O)O)NC(=O)[C@H](CCC(N)=O)NC(=O)[C@H](Cc1c[nH]c2ccccc12)NC(=O)[C@H](CC(N)=O)NC(=O)[C@H](CCCNC(=N)N)NC(=O)[C@H](CCCCN)NC(=O)[C@H](CC(C)C)NC(=O)[C@H](CCC(=O)O)NC(=O)[C@H](CC(=O)O)NC(=O)[C@H](CCC(=O)O)NC(=O)[C@H](C)NC(=O)[C@@H](N)CC(=O)O)[C@@H](C)CC)C(=O)N[C@@H](CC(C)C)C(=O)N[C@@H](CCC(N)=O)C(=O)N[C@@H](CCSC)C(=O)N[C@@H](Cc1ccccc1)C(=O)N[C@@H](Cc1ccccc1)C(=O)N[C@@H](CCC(=O)O)C(=O)N[C@@H](Cc1c[nH]c2ccccc12)C(=O)N[C@@H](Cc1c[nH]c2ccccc12)C(=O)N[C@@H](CCC(N)=O)C(=O)N[C@@H](CCCCN)C(=O)N[C@@H](CC(=O)O)C(=O)O | – | 390 | 11900 | Non-toxic | – | – | – | – | – |
| CC[C@@H](C)[C@@H](NC(=O)[C@@H](CCC(N)=O)NC(=O)[C@@H](CCC(N)=O)NC(=O)[C@@H](Cc1ccccc1)NC(=O)[C@@H](CCC(=O)O)NC(=O)[C@@H](CCC(N)=O)NC(=O)[C@H](NC(=O)[C@@H](CCC(=O)O)NC(=O)[C@@H](CCC(N)=O)NC(=O)[C@H](Cc1c[nH]c2ccccc12)NC(=O)[C@H](CC(N)=O)NC(=O)[C@H](CCCNC(=N)N)NC(=O)[C@H](CCCCN)NC(=O)[C@H](CC(C)C)NC(=O)[C@H](CCC(=O)O)NC(=O)[C@H](CC(=O)O)NC(=O)[C@H](CCC(=O)O)NC(=O)[C@H](C)NC(=O)[C@H](N)CC(=O)O)[C@@H](C)CC)C(=O)N[C@H](CC(C)C)C(=O)N[C@H](CCC(N)=O)C(=O)N[C@H](CCSC)C(=O)N[C@H](Cc1ccccc1)C(=O)N[C@H](Cc1ccccc1)C(=O)N[C@H](CCC(=O)O)C(=O)N[C@H](Cc1c[nH]c2ccccc12)C(=O)N[C@@H](Cc1c[nH]c2ccccc12)C(=O)N[C@@H](CCC(N)=O)C(=O)N[C@H](CCCCN)C(=O)N[C@@H](CC(=O)O)C(=O)O | – | – | – | – | Active | Dose-dependent effect | Active | Active | Active |
| CC[C@@H](C)[C@H](NC(=O)[C@H](CCC(=O)O)NC(=O)[C@H](CCC(N)=O)NC(=O)[C@@H](Cc1c[nH]c2ccccc12)NC(=O)[C@@H](CC(N)=O)NC(=O)[C@@H](CCCNC(=N)N)NC(=O)[C@@H](CCCCN)NC(=O)[C@@H](CC(C)C)NC(=O)[C@@H](CCC(=O)O)NC(=O)[C@@H](CC(=O)O)NC(=O)[C@@H](CCC(=O)O)NC(=O)[C@@H](C)NC(=O)[C@@H](N)CC(=O)O)C(=O)N[C@@H](CCC(N)=O)C(=O)N[C@@H](CCC(=O)O)C(=O)N[C@@H](C)C(=O)N[C@@H](CCC(N)=O)C(=O)N[C@@H](CCC(N)=O)C(=O)N[C@H](C(=O)N[C@@H](CC(C)C)C(=O)N[C@@H](CCC(N)=O)C(=O)N[C@@H](CCSC)C(=O)N[C@@H](Cc1ccccc1)C(=O)N[C@@H](Cc1ccccc1)C(=O)N[C@@H](CCC(=O)O)C(=O)N[C@@H](Cc1c[nH]c2ccccc12)C(=O)N[C@H](Cc1c[nH]c2ccccc12)C(=O)N[C@H](CCC(N)=O)C(=O)N[C@@H](CCCCN)C(=O)N[C@H](CC(=O)O)C(=O)O)[C@@H](C)CC | – | – | – | – | – | inactive | – | – | – |
| CC[C@@H](C)[C@H](NC(=O)[C@H](CCC(N)=O)NC(=O)[C@H](CCC(N)=O)NC(=O)[C@H](Cc1ccccc1)NC(=O)[C@H](CCC(=O)O)NC(=O)[C@H](CCC(N)=O)NC(=O)[C@@H](NC(=O)[C@H](CCC(=O)O)NC(=O)[C@H](CCC(N)=O)NC(=O)[C@@H](Cc1c[nH]c2ccccc12)NC(=O)[C@H](CC(N)=O)NC(=O)[C@H](CCCNC(=N)N)NC(=O)[C@H](CCCCN)NC(=O)[C@H](CC(C)C)NC(=O)[C@H](CCC(=O)O)NC(=O)[C@H](CC(=O)O)NC(=O)[C@H](CCC(=O)O)NC(=O)[C@H](C)NC(=O)[C@H](N)CC(=O)O)[C@@H](C)CC)C(=O)N[C@@H](C)C(=O)N[C@@H](CCC(N)=O)C(=O)N[C@@H](CCSC)C(=O)N[C@@H](Cc1ccccc1)C(=O)N[C@@H](Cc1ccccc1)C(=O)N[C@@H](CCC(=O)O)C(=O)N[C@@H](Cc1c[nH]c2ccccc12)C(=O)N[C@@H](Cc1c[nH]c2ccccc12)C(=O)N[C@@H](CCC(N)=O)C(=O)N[C@H](CCCCN)C(=O)N[C@@H](CC(=O)O)C(=O)O | – | – | – | – | – | inactive | – | – | – |
| H-DAEDELKRNWQAIQEFQQILQMFFEWWQKD-OH | – | – | – | – | – | inactive | – | – | – |
| H-LREQRLKEHLQEIQIFEQWLQIFQEQFQKF-OH | – | 500 | – | Non-toxic | – | inactive | – | – | – |
| H-QEKWFAEQYARMVLEWIEKELKESL-OH | – | 500 | 20700 | Non-toxic | Active | Dose-dependent effect | Active | Active | Active |
| H-RQQEELYKKWLQEFWKWFQIALQLD-OH | – | 500 | 32600 | Non-toxic | Active | Dose-dependent effect | Active | Active | Active |
| H-SEQELKQIFQQVFQWWQLWEQFEKQ-OH | – | – | – | – | Active | – | Active | Active | Active |
